Data published in the CheMixHub ionic liquid set.
± gives the uncertainty stated by the source.

Assay: xn = mol fraction of the nth substance listed

CCS(=O)(=O)[O-].[NH4+] + CC(=O)[O-].CC[n+]1ccn(C)c1
101 kPa
Conditions	electrical conductivity [S/m]	viscosity [mPa·s]
313.15 K, x1 = 0.1701	0.38 ± 0.0076	112.1 ± 7.4
318.15 K, x1 = 0.05	0.649 ± 0.013	51.8 ± 3.4
323.15 K, x1 = 0.0999	0.669 ± 0.013	50.7 ± 3.3
323.15 K, x1 = 0.1701	0.588 ± 0.012	65.1 ± 4.2

CC[n+]1ccn(C)c1.F[B-](F)(F)F + CC(=O)c1ccccc1
Conditions	viscosity [mPa·s]
293.15 K, 100 kPa, x2 = 0	42.7 ± 8.5

C[N+](C)(C)Cc1ccccc1.[Cl-] + CCC(O)CO
101.13 kPa, x1 = 0.5
Conditions	electrical conductivity [S/m]	viscosity [mPa·s]
308 K	–	64 ± 12
323 K	0.53 ± 0.11	–

CCCCCCCCCC(=O)[O-].CCCCCCCCCCCCCC[P+](CCCCCC)(CCCCCC)CCCCCC + CCCC(=O)O + O
298 K, 100 kPa
Conditions	viscosity [mPa·s]
x2 = 0, x3 = 0.8754	96 ± 10
x2 = 0.02766, x3 = 0.8266	95 ± 10
x2 = 0.04982, x3 = 0.8036	97 ± 10
x2 = 0.3259, x3 = 0.4715	100 ± 11
x2 = 0.4065, x3 = 0.3936	96 ± 11
x2 = 0.4564, x3 = 0.3488	91 ± 10
x2 = 0.4978, x3 = 0.3385	78 ± 10

CCCCCCCC[N+](CCCCCCCC)(CCCCCCCC)CCCCCCCC.[Br-] + CCCCCC(=O)O
Conditions	electrical conductivity [S/m]
298.1 K, 100 kPa, x1 = 0.333	4.5e-06 ± 5e-07

CCCCCCCC[N+](CCCCCCCC)(CCCCCCCC)CCCCCCCC.[Br-] + CCCCCCC(=O)O
Conditions	electrical conductivity [S/m]
298.1 K, 100 kPa, x1 = 0.333	4.5e-06 ± 5e-07

CCCCCCCC[N+](CCCCCCCC)(CCCCCCCC)CCCCCCCC.[Br-] + CCCCCCCC(=O)O
Conditions	electrical conductivity [S/m]
298.1 K, 100 kPa, x1 = 0.333	4.5e-06 ± 5e-07

CCCCCCCC[N+](CCCCCCCC)(CCCCCCCC)CCCCCCCC.[Br-] + CCCCCCCCCC(=O)O
Conditions	electrical conductivity [S/m]	viscosity [mPa·s]
293 K, 100 kPa, x1 = 0.3333	–	910 ± 370
298 K, 100 kPa, x1 = 0.3333	–	650 ± 260
298.1 K, 100 kPa, x1 = 0.333	4.5e-06 ± 5e-07	–
303 K, 100 kPa, x1 = 0.3333	–	470 ± 190
303.15 K, 101 kPa, x2 = 0.6667	–	469 ± 17
313 K, 100 kPa, x1 = 0.3333	–	260 ± 110
318.15 K, 100 kPa, x1 = 0.333	–	208 ± 14
323.15 K, 101 kPa, x2 = 0.6667	–	174 ± 11
333 K, 100 kPa, x1 = 0.3333	–	98 ± 39
353.15 K, 101 kPa, x2 = 0.6667	–	56 ± 10

OC[C@@H](O)[C@@H](O)[C@H](O)[C@@H](O)CO + CCCCCCCCCCCCCCCC[N+](C)(C)C.[Br-] + O
viscosity [mPa·s], 100 kPa
Conditions	298.15 K	308.15 K	318.15 K
x1 = 0.0007313, x2 = 1.441e-05	0.921 ± 0.06	0.762 ± 0.06	–
x1 = 0.0008985, x2 = 7.2e-06	0.923 ± 0.061	–	0.634 ± 0.06
x1 = 0.001226, x2 = 1.44e-05	–	0.774 ± 0.06	–
x1 = 0.001311, x2 = 2.16e-05	0.942 ± 0.061	0.779 ± 0.06	0.644 ± 0.06
x1 = 0.001618, x2 = 1.439e-05	0.949 ± 0.061	–	0.649 ± 0.06
x1 = 0.001661, x2 = 2.159e-05	0.954 ± 0.061	0.788 ± 0.06	0.651 ± 0.06
x1 = 0.001736, x2 = 7.2e-06	0.949 ± 0.061	–	0.651 ± 0.06
x1 = 0.001867, x2 = 7.19e-06	–	0.788 ± 0.06	0.654 ± 0.06
x1 = 0.001983, x2 = 2.158e-05	0.964 ± 0.061	–	0.658 ± 0.06
x1 = 0.00199, x2 = 1.439e-05	0.96 ± 0.061	0.793 ± 0.06	0.657 ± 0.06
x1 = 0.00225, x2 = 2.157e-05	0.973 ± 0.061	0.803 ± 0.06	0.664 ± 0.06
x1 = 0.002345, x2 = 7.19e-06	0.968 ± 0.061	0.799 ± 0.06	0.663 ± 0.06
x1 = 0.002374, x2 = 1.438e-05	0.972 ± 0.061	0.803 ± 0.061	0.665 ± 0.06
x1 = 0.002657, x2 = 1.438e-05	0.981 ± 0.061	0.81 ± 0.061	0.67 ± 0.06
x1 = 0.002734, x2 = 7.19e-06	0.98 ± 0.061	0.809 ± 0.061	0.671 ± 0.06
x1 = 0.002734, x2 = 2.156e-05	0.989 ± 0.061	0.816 ± 0.061	0.674 ± 0.06

CC(=O)[O-].CCCCC[N+](CCCCC)(CCCCC)CCCCC + CCCCCCCCCCCCOS(=O)(=O)[O-].[Na+] + O
viscosity [mPa·s], 100 kPa
Conditions	x2 = 1.81e-06, x1 = 0.0001802	x2 = 3.62e-06, x1 = 0.0001802	x2 = 5.42e-06, x1 = 0.0001802	x2 = 7.23e-06, x1 = 0.0001802	x2 = 9.04e-06, x1 = 0.0001802	x2 = 1.085e-05, x1 = 0.0001802	x2 = 1.266e-05, x1 = 0.0001802	x2 = 1.446e-05, x1 = 0.0001802	x2 = 1.627e-05, x1 = 0.0001802	x2 = 1.808e-05, x1 = 0.0001802
293.15 K	1.002 ± 0.029	1.003 ± 0.029	1.005 ± 0.029	1.005 ± 0.029	1.007 ± 0.029	1.007 ± 0.029	1.007 ± 0.029	1.007 ± 0.029	1.007 ± 0.029	1.008 ± 0.029
298.15 K	0.89 ± 0.028	0.893 ± 0.028	0.894 ± 0.028	0.896 ± 0.028	0.898 ± 0.028	0.9 ± 0.028	0.902 ± 0.028	0.902 ± 0.028	0.904 ± 0.028	0.904 ± 0.028
303.15 K	0.784 ± 0.028	0.786 ± 0.028	0.789 ± 0.028	0.792 ± 0.028	0.793 ± 0.028	0.796 ± 0.028	0.796 ± 0.028	0.796 ± 0.028	0.798 ± 0.028	0.796 ± 0.028
308.15 K	0.701 ± 0.027	0.703 ± 0.027	0.704 ± 0.027	0.706 ± 0.027	0.707 ± 0.027	0.707 ± 0.027	0.708 ± 0.027	0.708 ± 0.027	0.709 ± 0.027	0.709 ± 0.027
313.15 K	0.636 ± 0.027	0.638 ± 0.027	0.641 ± 0.027	0.643 ± 0.027	0.645 ± 0.027	0.646 ± 0.027	0.646 ± 0.027	0.647 ± 0.027	0.648 ± 0.027	0.648 ± 0.027
318.15 K	0.587 ± 0.027	0.587 ± 0.027	0.589 ± 0.027	0.59 ± 0.027	0.591 ± 0.027	0.593 ± 0.027	0.593 ± 0.027	0.597 ± 0.027	0.598 ± 0.027	0.599 ± 0.027
